This note sets out measurements from patent US8106055B2, “Substituted amide compounds” (Gruenenthal GmbH, priority 2007, dated 2012).

Test [1] deals with T1, human bradykinin 1 receptor (B1R) (Homo sapiens, UniProt P46663).
T1 construct: expressed in transfected cells; host or cells: CHO K1 cells
T1 sequence (P46663 1-353): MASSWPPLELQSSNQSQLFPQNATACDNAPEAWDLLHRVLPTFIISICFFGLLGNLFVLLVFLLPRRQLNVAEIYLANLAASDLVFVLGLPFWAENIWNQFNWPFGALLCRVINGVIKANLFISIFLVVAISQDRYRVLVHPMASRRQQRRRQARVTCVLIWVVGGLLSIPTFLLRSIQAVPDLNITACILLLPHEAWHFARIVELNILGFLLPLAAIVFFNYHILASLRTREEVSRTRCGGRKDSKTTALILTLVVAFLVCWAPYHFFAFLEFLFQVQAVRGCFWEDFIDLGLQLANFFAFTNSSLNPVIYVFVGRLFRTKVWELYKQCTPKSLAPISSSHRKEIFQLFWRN
Kind of test: Functional investigation on the human bradykinin 1 receptor (B1R), Ca2+ FLIPR assay in CHO K1 hB1R cells. The test is classed as cell-based. The conditions noted are these: B1R antagonism human; test substance 10 μM; Ca2+ FLIPR, CHO K1 hB1R cells. The essentials: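 Stably transfected CHO K1 cells loaded with Fluo-4; FLIPR Ca2+ fluorescence peak (ex 488/em 540 nm). Compound added first (agonism vs Lys-Des-Arg9-bradykinin ≥50 nM human, Des-Arg9-bradykinin 10 μM rat), then after 10-20 min agonist at EC80; antagonism as % inhibition, IC50 from concentration series, n=2-3, N≥2.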

Test [2] concerns the target T2, serotonin (5-HT) reuptake (Rattus norvegicus, UniProt P31652).
T2 construct: synaptosomes are freshly isolated from areas of the rat brain; from tissue; host or cells: rat brain synaptosomes (P2 fraction)
The test is described as follows: Inhibition of serotonin (5HT) reuptake in synaptosomes from rat brain. The test is classed as biochemical. The conditions noted are these: test concentration of 10 μM. Summed up:
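Freshly isolated rat brain synaptosomes (P2 fraction) used for 5-HT reuptake. Test compound at 10 μM, activity given as % inhibition.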

T2 sequence (P31652 whole entry): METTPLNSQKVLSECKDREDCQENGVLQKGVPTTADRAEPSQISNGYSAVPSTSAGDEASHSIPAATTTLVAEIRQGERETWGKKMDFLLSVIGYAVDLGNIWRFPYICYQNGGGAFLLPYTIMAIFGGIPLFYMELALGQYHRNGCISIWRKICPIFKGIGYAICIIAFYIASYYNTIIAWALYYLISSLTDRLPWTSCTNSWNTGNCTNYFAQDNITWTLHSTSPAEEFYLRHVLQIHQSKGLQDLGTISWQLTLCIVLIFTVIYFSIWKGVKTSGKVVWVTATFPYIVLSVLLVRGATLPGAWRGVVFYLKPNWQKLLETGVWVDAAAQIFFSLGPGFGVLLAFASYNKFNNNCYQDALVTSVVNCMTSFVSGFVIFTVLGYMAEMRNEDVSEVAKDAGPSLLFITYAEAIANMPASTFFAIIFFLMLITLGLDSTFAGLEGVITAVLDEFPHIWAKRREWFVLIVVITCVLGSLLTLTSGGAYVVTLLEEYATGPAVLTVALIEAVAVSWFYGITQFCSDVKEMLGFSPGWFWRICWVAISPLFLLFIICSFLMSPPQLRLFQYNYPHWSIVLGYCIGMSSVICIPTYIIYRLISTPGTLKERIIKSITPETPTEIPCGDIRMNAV

Regarding `CN(C)C(c1ccc(F)cc1)C1CCC(CCNC(=O)COC2CCN(S(=O)(=O)c3ccccc3)CC2)CC1` (stereo not drawn) [Example 553], the “B1R Ant. h [10 μM] % Inhibition” value in test [1] is reported as −21%. In addition, the “5-HT (inhibition of reuptake of serotonin, % inhibition)” value in test [2] came to 94%.
As for `COc1cc(C)c(S(=O)(=O)N(CCOCC(=O)NCCC2CCC(C(c3ccc(F)cc3)N(C)C)CC2)Cc2ccccc2)c(C)c1C` (stereo not drawn) [Example 554], the “B1R Ant. h [10 μM] % Inhibition” value in test [1] is given as 23%. In addition, the “5-HT (inhibition of reuptake of serotonin, % inhibition)” value in test [2] was determined as 92%.
The like results for `COc1ccc(S(=O)(=O)N2CCCCC2COCC(=O)NC2CCC(C(c3ccc(F)cc3)N(C)C)CC2)cc1OC` (stereo not drawn) [Example 555] were, in that order, −14% and 86%.
The like results for `CN(C)C(CCc1ccccc1)C1CCC(CNC(=O)COCCN(C)S(=O)(=O)c2cccc(C(F)(F)F)c2)CC1` (stereo not drawn) [Example 556] were, in that order, 82% and 86%.
Consider `CN(C)C(CCc1ccccc1)C1CCC(CNC(=O)COC2CCN(S(=O)(=O)c3ccc(Cl)cc3)C2)CC1` (stereo not drawn) [Example 557], for which the “B1R Ant. h [10 μM] % Inhibition” value in test [1] came out at 20%. The “5-HT (inhibition of reuptake of serotonin, % inhibition)” value in test [2] was found to be 88%.
Take `CN(C)C(CCc1ccccc1)C1CCC(CNC(=O)COC2CCCN(S(=O)(=O)c3ccccc3)C2)CC1` (stereo not drawn) [Example 558]: the “B1R Ant. h [10 μM] % Inhibition” value in test [1] was 14%. Further, the “5-HT (inhibition of reuptake of serotonin, % inhibition)” value in test [2] was determined as 92%.
On to `COc1ccc(S(=O)(=O)N2CCCCC2COCC(=O)NCC2CCC(C(CCc3ccccc3)N(C)C)CC2)cc1OC` (stereo not drawn) [Example 559], for which, in test [1], the “B1R Ant. h [10 μM] % Inhibition” value came out at 2%. Also, in test [2] (10 µM), the “5-HT (inhibition of reuptake of serotonin, % inhibition)” value was 84%.
For the compound `COc1cc(C)c(S(=O)(=O)N(CCOCC(=O)NCC2CCC(C(c3ccc(Cl)cc3)N(C)C)CC2)Cc2ccccc2)c(C)c1C` (stereo not drawn) [Example 560], the “B1R Ant. h [10 μM] % Inhibition” value in test [1] turned out to be 16%. Also, the “5-HT (inhibition of reuptake of serotonin, % inhibition)” value in test [2] is reported as 47%.
On to `COc1cc(C)c(S(=O)(=O)N2CCC(CCOCC(=O)NCCC3CCC(C(c4ccc(Cl)cc4)N(C)C)CC3)CC2)c(C)c1C` (stereo not drawn) [Example 561], for which the “B1R Ant. h [10 μM] % Inhibition” value in test [1] is −1%. Also, the “5-HT (inhibition of reuptake of serotonin, % inhibition)” value in test [2] came to 79%.
Take `COc1cc(C)c(S(=O)(=O)N(CCOCC(=O)NCC2CCC(C(CCc3ccccc3)N(C)C)CC2)Cc2ccccc2)c(C)c1C` (stereo not drawn) [Example 562]: in test [1], the “B1R Ant. h [10 μM] % Inhibition” value is 91%. Further, the “5-HT (inhibition of reuptake of serotonin, % inhibition)” value in test [2] turned out to be 96%.
The like results for `COc1cc(C)c(S(=O)(=O)N(CCOCC(=O)NCC2CCC(C(c3ccc(F)cc3)N(C)C)CC2)Cc2ccccc2)c(C)c1C` (stereo not drawn) [Example 563] were, in that order, 54% and 90%.
Regarding `COc1cc(C)c(S(=O)(=O)N2CCC(OCC(=O)NCC3CCC(C(CCc4ccccc4)N(C)C)CC3)C2)c(C)c1` (stereo not drawn) [Example 565], the “B1R Ant. h [10 μM] % Inhibition” value in test [1] is given as 102%. Moreover, in test [2], the “5-HT (inhibition of reuptake of serotonin, % inhibition)” value stood at 94%.
The like results for `COc1ccc(S(=O)(=O)N2CCC(OCC(=O)NCC3CCC(C(CCc4ccccc4)N(C)C)CC3)C2)cc1OC` (stereo not drawn) [Example 566] were, in that order, 1% and 87%.
The like results for `CN(C)C(CCc1ccccc1)C1CCC(CNC(=O)COCCN(C)S(=O)(=O)c2ccc(OC(F)(F)F)cc2)CC1` (stereo not drawn) [Example 567] were, in that order, 75% and 93%.
The like results for `CN(C)C(c1ccc(F)cc1)C1CCC(CNC(=O)COC2CCN(S(=O)(=O)c3ccccc3)CC2)CC1` (stereo not drawn) [Example 568] were, in that order, −20% and 97%.
With `COc1cc(C)c(S(=O)(=O)N(CCOCC(=O)NCCC2CCC(C(c3ccc(Cl)cc3)N(C)C)CC2)Cc2ccccc2)c(C)c1` (stereo not drawn) [Example 569], the “B1R Ant. h [10 μM] % Inhibition” value in test [1] came out at 14%. In test [2], the “5-HT (inhibition of reuptake of serotonin, % inhibition)” value is listed as 52%.
On to `COc1ccc(S(=O)(=O)N2CCCCC2COCC(=O)NCC2CCC(C(CCc3ccccc3)N(C)C)CC2)cc1OC` (stereo not drawn) [Example 570], for which, in test [1], the “B1R Ant. h [10 μM] % Inhibition” value is reported as −18%. For the same compound, the “5-HT (inhibition of reuptake of serotonin, % inhibition)” value in test [2] (10 µM) amounted to 87%.
For `COc1ccc(S(=O)(=O)N(C)CCOCC(=O)NCC2CCC(C(CCc3ccccc3)N(C)C)CC2)cc1OC` (stereo not drawn) [Example 571], the “B1R Ant. h [10 μM] % Inhibition” value in test [1] is −10%. Besides, in test [2], the “5-HT (inhibition of reuptake of serotonin, % inhibition)” value is given as 88%.
The like results for `COc1ccc(S(=O)(=O)N2CCCC2COCC(=O)NCC2CCC(C(CCc3ccccc3)N(C)C)CC2)cc1` (stereo not drawn) [Example 572] were, in that order, 50% and 93%.
The like results for `CN(C)C(CCc1ccccc1)C1CCC(CNC(=O)COC2CCN(S(=O)(=O)c3ccccc3)C2)CC1` (stereo not drawn) [Example 573] were, in that order, −4% and 100%.
The like results for `CN(C)C(CCc1ccccc1)C1CCC(CNC(=O)COC2CCN(S(=O)(=O)c3ccc(F)cc3)C2)CC1` (stereo not drawn) [Example 574] were, in that order, 2% and 94%.
`CN(C)C(c1ccc(Cl)cc1)C1CCC(CCNC(=O)COCCN(C)S(=O)(=O)c2ccc(OC(F)(F)F)cc2)CC1` (stereo not drawn) [Example 575]: the “B1R Ant. h [10 μM] % Inhibition” value in test [1] was −4%. In addition, the “5-HT (inhibition of reuptake of serotonin, % inhibition)” value in test [2] is 77%.
On to `COc1cc(C)c(S(=O)(=O)N(CCOCC(=O)NCCC2CCC(C(c3ccc(Cl)cc3)N(C)C)CC2)Cc2ccccc2)c(C)c1C` (stereo not drawn) [Example 576], for which, in test [1], the “B1R Ant. h [10 μM] % Inhibition” value is −6%. The “5-HT (inhibition of reuptake of serotonin, % inhibition)” value in test [2] was 73%.
The like results for `CN(C)C(CCc1ccccc1)C1CCC(CNC(=O)COC2CCN(S(=O)(=O)c3ccccc3)CC2)CC1` (stereo not drawn) [Example 578] were, in that order, −14% and 94%.
Regarding `CN(C)C(CCc1ccccc1)C1CCC(CNC(=O)COCCN(C)S(=O)(=O)c2c(Cl)cccc2Cl)CC1` (stereo not drawn) [Example 580], the “B1R Ant. h [10 μM] % Inhibition” value in test [1] amounted to 95%. Further, the “5-HT (inhibition of reuptake of serotonin, % inhibition)” value in test [2] (10 µM) is reported as 77%.
The like results for `COc1ccc(S(=O)(=O)N2CCCCC2COCC(=O)NCCC2CCC(C(c3cccc(F)c3)N(C)C)CC2)cc1OC` (stereo not drawn) [Example 581] were, in that order, 2% and 70%.
As to `CN(C)C(c1ccc(F)cc1)C1CCC(CNC(=O)COCCC2CCN(S(=O)(=O)c3ccccc3)CC2)CC1` (stereo not drawn) [Example 583], the “B1R Ant. h [10 μM] % Inhibition” value in test [1] is recorded as −27%. Besides, in test [2], the “5-HT (inhibition of reuptake of serotonin, % inhibition)” value turned out to be 77%.
The like results for `CN(C)C(c1ccc(Cl)cc1)C1CCC(CNC(=O)COCCC2CCN(S(=O)(=O)c3ccccc3)CC2)CC1` (stereo not drawn) [Example 584] were, in that order, −20% and 64%.
The like results for `CN(C)C(c1ccc(F)cc1)C1CCC(CCNC(=O)COCCN(C)S(=O)(=O)c2ccc(Cl)cc2Cl)CC1` (stereo not drawn) [Example 586] were, in that order, 95% and 73%.
Take `Cc1cc(C)c(S(=O)(=O)N(C)CCOCC(=O)NCCC2CCC(C(c3cccc(F)c3)N(C)C)CC2)c(C)c1` (stereo not drawn) [Example 587]: in test [1], the “B1R Ant. h [10 μM] % Inhibition” value is −14%. Moreover, the “5-HT (inhibition of reuptake of serotonin, % inhibition)” value in test [2] was determined as 86%.
